Results taken from US20130053336A1, “TREATMENT OF CHLAMYDIACEAE INFECTIONS BY MEANS OF BETA-LACTAMS” (priority 2010, published 2013).
In brackets after ≈: the same amount, converted by molar mass. Entries after “also recorded” stand apart in the source; their conditions may differ. Like-named read-outs stand apart in the source and are kept apart here.

How the values were obtained:
[1] = tested on: Chlamydia trachomatis serovar L2; experiment: Infectivity of progeny bacteria (IFU titration, reactivation test); assay type: cell-based
Experimental: HeLa cells were infected with the Chlamydia trachomatis L2 serovar at 1 inclusion forming unit (IFU). At 3 hpi, 3 equal batches were distinguished and penicillin G was added at a concentration of 100 U/ml to the “penicillin G” batch (black bar) and “reversion” (gray bar) but not in the control batch (white bar). At 24 hpi, penicillin G was removed from the culture medium in the reversion group. At 48 hpi or 100 hpi, the supernatants and the cells were combined and stored at -80° C. Fresh cultures of HeLa cells were then incubated for 1 hour with cell extracts (left) or supernatants (right), incubated with cycloheximide and fixed 24 hours later. The nuclei and the inclusions were stained and counted to calculate the number of IFU/ml. […] It is also a first indication of the lethality of Chlamydia. HeLa cells were infected with Chlamydia trachomatis serovar L2 at 1 IFU. At 3 hpi, penicillin G was added at a concentration of 1, 10 or 100 U/ml in the penicillin G (-) and reversion (+) samples. At 24 hpi, penicillin G was removed from the culture medium in the reversion group (+). At 48 hpi or 100 hpi, the supernatants and the cells were collected and stored at -80° C. HeLa cells grown on slides were incubated for 1 hour with cell extracts (left) or with supernatants (right), treated with cycloheximide and fixed 24 hours later. The nuclei and inclusions were stained and counted to determine the number of IFU/ml. […] The infections were carried out at 37° C. for 90 minutes with centrifugation, followed by a washing of extracellular bacteria. At 3 hpi, after the washings, the culture medium was replaced with medium containing either 25 μg/ml gentamicin or 1-100 IU/ml penicillin G. At regular intervals after treatment with penicillin G, the cultures were either fixed in 4% neutral buffered PFA for 30 minutes to be prepared for confocal microscopy, or collected to determine the infectivity of the progeny bacteria, according to the previously described method (Verbeke, P. et al. PLoS Pathog 2:e45, 2006). HeLa cells cultured in monolayers on slides were infected with Chlamydia trachomatis serovar L2 and treated with penicillin G, as described above. Twenty hours after infection, the culture was washed and the medium replaced with medium free of penicillin G. Between 48 and 100 hpi, the cells and the culture medium were collected at various intervals and a titration test was performed according to the method of the prior art (Scidmore, M. A. Curr Protoc Microbiol Chapter 11: Unit 11A 11, 2005). To determine whether treatment with penicillin G could affect bacterial persistence, HeLa cells infected with L2 and treated with IFN-γ and penicillin G (500 IU/ml) from 48 hpi (i.e. 24 hours after treatment with IFN-γ) to 72 hpi (i.e. 48 hours after treatment with IFN-γ). The slides were then fixed and observed using an epifluorescence microscope (Leica D M, Leica, Mannheim, Germany) equipped with two sets of detection filters (Hoechst 360/40 nmBP-425 nmLP; FITC 480/40 nmBP-527/30 nmBP) and connected to a CCD camera CCC.

[2] = tested on: Chlamydia trachomatis serovar L2; experiment: Minimum bactericidal concentration (titration of infectious ability of bacteria from treated infected cells); assay type: cell-based
Experimental: (§1) It was first sought to verify whether other molecules of the β-lactam family could induce in vitro the same abnormal and noninfectious forms of Chlamydia trachomatis as that produced in the presence of penicillin G. Titration experiments were performed on the infectious ability of bacteria from infected cells treated with different β-lactams. Cytotoxicity and minimum bactericidal concentration (MBC) were determined for each of these molecules. It was also verified whether all of these β-lactams have bactericidal action on persistent forms of Chlamydia trachomatis produced in vitro under the effect of IFN-γ.

[3] = tested on: Cells Infected with Chlamydia trachomatis serovar L2; experiment: Cytotoxicity of β-lactams; assay type: cell-based; conditions: given as 0
Experimental: as §1

[4] = tested on: persistent forms of Chlamydia; experiment: Penicillin G on persistent infection induced by IFN-γ; assay type: cell-based, Chlamydia trachomatis
Experimental: HeLa cells cultured in monolayers on slides were infected with serovar L2 with an IFU of 1, as described above (Verbeke, P. et al. PLoS Pathog 2:e45, 2006). Three hours after the infection, the medium was removed and replaced with culture medium containing 500 IU/ml (final concentration) recombinant human IFN-γ. The infected cells were incubated for an additional 100 hours in the presence of IFN-γ before being prepared for confocal microscopy as described below.
HeLa cells cultured in monolayers on slides were infected with Chlamydia trachomatis serovar L2 and treated with penicillin G, as described above. Twenty hours after infection, the culture was washed and the medium replaced with medium free of penicillin G. Between 48 and 100 hpi, the cells and the culture medium were collected at various intervals and a titration test was performed according to the method of the prior art (Scidmore, M. A. Curr Protoc Microbiol Chapter 11: Unit 11A 11, 2005). To determine whether treatment with penicillin G could affect bacterial persistence, HeLa cells infected with L2 and treated with IFN-γ and penicillin G (500 IU/ml) from 48 hpi (i.e. 24 hours after treatment with IFN-γ) to 72 hpi (i.e. 48 hours after treatment with IFN-γ). The slides were then fixed and observed using an epifluorescence microscope (Leica D M, Leica, Mannheim, Germany) equipped with two sets of detection filters (Hoechst 360/40 nmBP-425 nmLP; FITC 480/40 nmBP-527/30 nmBP) and connected to a CCD camera CCC.
The effects of penicillin G were tested on persistent infections. Cells were infected and then treated with IFN-γat 3 hpi. Once the appearance of persistent inclusions was observed under the microscope, penicillin G was added to the infected cells cultured in the presence of IFN-γ.

Q: Which “infectivity at low penicillin G concentrations” value ([1]; 1, 10 or 100 U/ml, permanent or transitory treatment) does the source give for `CC1(C)S[C@@H]2[C@H](NC(=O)Cc3ccccc3)C(=O)N2[C@H]1C(=O)O` [Penicillin G, benzylpenicillin] here?
A: The value was “same irreversible loss of infectivity; also recorded: no reinfection was obtained”.

Q: And the “infectivity after removing penicillin G at 24 hpi (reversion)” value ([1]; 100 U/ml from 3 hpi, removed at 24 hpi)?
A: Its value is “no improvement in infectivity”.

Q: And the “infectious ability (IFU/ml) with or without reversion phase” value ([1]; 100 U/ml, 48 hpi or 100 hpi, cell extracts and supernatants, FIG. 2)?
A: Its value is “no infectious ability could be shown”.

Q: And the “infectivity of bacteria collected at 48 hpi compared with gentamicin-treated cells” value ([1]; continuous 100 IU/ml, 48 hpi)?
A: Its value is “several hundred times less infectious”.

Q: And the “infectivity of bacteria released at 100 hpi” value ([1]; continuous 100 IU/ml, 100 hpi)?
A: Its value is “completely noninfectious”.

Q: And the MBC ([2]; minimum bactericidal concentration, read-out: MBC)?
A: Its MBC is 0.3 µM (≈ 0.1 µg/mL).

Q: And the MBC ([2]; second line of the MBC cell, read-out: MBC, bound in parentheses below the value)?
A: The MBC was > 0.1 µM.

Q: And the Cytotox. [3]?
A: The Cytotox. was 0.

Q: What about the “inclusion growth of persistent inclusions after addition of penicillin G” value ([4]; cells kept in IFN-γ) of the same compound?
A: Its value is “Rapid reinitiation of inclusion growth”.

Q: And the “infectivity of bacteria released on lysis” value ([4]; persistent infection)?
A: The value was “noninfectious”.

Q: And the “time of cell lysis after start of treatment” value ([4]; persistent infection, IFN-γ present)?
A: The value was 70 h.

Q: And the “cathepsin D in bacterial forms of persistent infection” value ([4]; twenty-four hours after addition of penicillin G)?
A: The value was “most of the abnormal bacterial forms contained cathepsin D”.
